# Patent US20090312349A1, “ANTI-INFLAMMATORY MEDICAMENTS” (priority 2004, published 2009)
# Read-outs that look alike come from different tables or passages of the source.
# Experiments:
# Format in all cases: biochemical
# [1] = molecular target: KDR kinase (Homo sapiens, UniProt P35968, DEL940-989/E990V); assay: KDR kinase assay K1
# Description: (§1) IC50 values were calculated from a series of percent inhibition values determined at a range of inhibitor concentrations using software routines as implemented in the GraphPad Prism software package.
# [2] = molecular target: T1, Abl kinase (Homo sapiens, UniProt P00519); assay: Abl kinase assay A1
# T1 sequence (P00519 229-512): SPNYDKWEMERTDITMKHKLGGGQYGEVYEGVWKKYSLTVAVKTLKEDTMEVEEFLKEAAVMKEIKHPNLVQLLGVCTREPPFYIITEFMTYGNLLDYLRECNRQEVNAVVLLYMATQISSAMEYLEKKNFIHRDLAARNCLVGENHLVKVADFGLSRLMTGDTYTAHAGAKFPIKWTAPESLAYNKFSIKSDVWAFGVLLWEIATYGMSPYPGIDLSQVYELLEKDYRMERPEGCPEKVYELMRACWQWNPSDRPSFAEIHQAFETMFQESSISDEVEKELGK
# Description: as §1
# [3] = molecular target: phosphorylated p-38-alpha kinase (Homo sapiens, UniProt Q16539); assay: P-38 alpha kinase assay P1; conditions: Method P1; 2 h pre-incubation before ATP
# Chain of phosphorylated p-38-alpha kinase (Q16539 1-360 isoform Q16539-2): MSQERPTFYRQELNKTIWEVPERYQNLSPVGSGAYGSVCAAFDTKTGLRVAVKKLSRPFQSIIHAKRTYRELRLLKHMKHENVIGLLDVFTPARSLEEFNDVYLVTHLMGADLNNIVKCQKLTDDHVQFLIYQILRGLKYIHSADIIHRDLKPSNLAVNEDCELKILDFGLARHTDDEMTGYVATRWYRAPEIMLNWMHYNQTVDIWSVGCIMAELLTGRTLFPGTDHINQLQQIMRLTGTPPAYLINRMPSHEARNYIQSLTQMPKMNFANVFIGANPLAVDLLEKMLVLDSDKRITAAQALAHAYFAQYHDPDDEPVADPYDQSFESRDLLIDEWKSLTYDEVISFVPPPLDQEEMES
# [4] = molecular target: B-Raf(V599E) kinase (Homo sapiens, UniProt P15056, V600E); assay: B-Raf(V599E) kinase assay B1; conditions: for IC50: Method B1, construct 1
# Chain of B-Raf(V599E) kinase (P15056 with tags, fused parts or gaps V600E): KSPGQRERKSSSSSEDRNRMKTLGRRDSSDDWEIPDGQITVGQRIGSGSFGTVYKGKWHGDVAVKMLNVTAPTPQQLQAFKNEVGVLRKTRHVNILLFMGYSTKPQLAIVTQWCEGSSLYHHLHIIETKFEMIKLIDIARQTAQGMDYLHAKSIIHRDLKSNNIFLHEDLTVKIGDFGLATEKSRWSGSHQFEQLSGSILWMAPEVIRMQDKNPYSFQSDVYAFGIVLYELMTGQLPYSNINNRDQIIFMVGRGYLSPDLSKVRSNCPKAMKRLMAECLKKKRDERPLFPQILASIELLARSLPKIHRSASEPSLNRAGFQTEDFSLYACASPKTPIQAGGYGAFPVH
# Description: The test compounds were incubated with the reaction mixture at 30° C. for 2 h. […] The reaction rate was calculated using the 1.5 h to 2.5 h time frame. […] IC50 values were calculated from a series of percent inhibition values determined at a range of inhibitor concentrations using software routines as implemented in the GraphPad Prism software package.
# [5] = molecular target: T2, phospho p-38 alpha kinase (Homo sapiens, UniProt Q16539); assay: P-38 alpha kinase assay (spectrophotometric, pyruvate kinase/lactate dehydrogenase coupled); conditions: Table 5; for IC50: assay not named, read-out: uM
# T2 construct: purchased Panvera
# T2 sequence (Q16539 whole entry): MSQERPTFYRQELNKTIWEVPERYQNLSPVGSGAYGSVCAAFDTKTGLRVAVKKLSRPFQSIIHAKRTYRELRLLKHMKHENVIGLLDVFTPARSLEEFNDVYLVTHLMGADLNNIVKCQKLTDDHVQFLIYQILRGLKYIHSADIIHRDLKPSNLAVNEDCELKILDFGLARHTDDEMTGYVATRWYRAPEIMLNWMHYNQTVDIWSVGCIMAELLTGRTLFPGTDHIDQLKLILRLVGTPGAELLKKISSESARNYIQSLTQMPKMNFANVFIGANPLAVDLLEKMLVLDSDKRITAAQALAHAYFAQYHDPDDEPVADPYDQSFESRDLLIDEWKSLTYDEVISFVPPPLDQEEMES
# [6] = read-out: Results, % @ concentration μM
# [7] = Method A1, read-out: Results, μM (IC50)
# [8] = read-out: Results, % @ concentration μM, Method K1, @ 10 μM
# [9] = read-out: Results, % @ concentration μM, Method A1, @ 10 μM
# Chain of KDR kinase (P35968 with tags, fused parts or gaps DEL940-989/E990V): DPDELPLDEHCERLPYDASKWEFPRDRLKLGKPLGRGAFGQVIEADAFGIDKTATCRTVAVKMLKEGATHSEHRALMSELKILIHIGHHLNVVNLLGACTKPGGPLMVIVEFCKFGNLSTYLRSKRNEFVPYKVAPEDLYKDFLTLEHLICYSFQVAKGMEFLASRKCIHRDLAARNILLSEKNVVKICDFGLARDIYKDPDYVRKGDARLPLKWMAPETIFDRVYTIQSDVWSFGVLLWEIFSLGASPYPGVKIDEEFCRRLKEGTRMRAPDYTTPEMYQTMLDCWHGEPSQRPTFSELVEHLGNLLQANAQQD
SMILES,IC50 [3],IC50 [4],"inhibition at 10 µM [1, 8]","inhibition at 10 µM [2, 9]",also measured
"CN(C)[C@H]1CCN(C(=O)Cc2cccc(-n3nc(C(C)(C)C)cc3NC(=O)Nc3cccc(Cl)c3Cl)c2)C1 [Example 465, 1-(3-tert-butyl-1-(3-(2-((S)-3-(dimethylamino)pyrrolidin-1-yl)-2-oxoethyl)phenyl)-1H-pyrazol-5-yl)-3-(2,3-dichlorophenyl)urea]",–,–,–,–,"inhibition at 10 µM [1, 6]: 91%; IC50 [2]: 1.2 µM"
"NC(=O)Cc1cccc(-n2nc(-c3ccccc3)cc2NC(=O)Nc2cccc(Oc3cccnc3)c2)c1 [Example 501, 1-(1-(3-(2-amino-2-oxoethyl)phenyl)-3-phenyl-1H-pyrazol-5-yl)-3-(3-(pyridin-3-yloxy)phenyl)urea]",0.076 µM,–,–,–,"IC50 ([1]; Method K1): 1.6 µM; IC50 [2, 7]: 2.5 µM"
"O=C(O)Cc1ccc(-n2nc(C3CCCC3)cc2NC(=O)Nc2cccc(Cl)c2Cl)cc1 [Example 441, 2-(4-(3-cyclopentyl-5-(3-(2,3-dichlorophenyl)ureido)-1H-pyrazol-1-yl)phenyl)acetic acid]",0.005 µM,0.037 µM,62%,44%,–
"CC(C)(C)c1cc(NC(=O)Nc2ccc(F)cc2F)n(-c2cccc(CC(N)=O)c2)n1 [Example 496, 1-(1-(3-(2-amino-2-oxoethyl)phenyl)-3-tert-butyl-1H-pyrazol-5-yl)-3-(2,4-difluorophenyl)urea]",–,0.01 µM,–,66%,IC50 ([1]; Method K1): 2.4 µM
"CCOC(=O)Cc1ccc(-n2nc(C3CCCC3)cc2NC(=O)Nc2cccc(Cl)c2Cl)cc1 [Example 437, ethyl 2-(4-(3-cyclopentyl-5-(3-(2,3-dichlorophenyl)ureido)-1H-pyrazol-1-yl)phenyl)acetate]",–,0.16 µM,32%,21%,–
"CN(C)[C@@H]1CCN(C(=O)Cc2cccc(-n3nc(C(C)(C)C)cc3NC(=O)Nc3cccc(Cl)c3Cl)c2)C1 [Example 464, 1-(3-tert-butyl-1-(3-(2-((R)-3-(dimethylamino)pyrrolidin-1-yl)-2-oxoethyl)phenyl)-1H-pyrazol-5-yl)-3-(2,3-dichlorophenyl)urea]",–,–,–,–,"inhibition at 10 µM [1, 6]: 85%; inhibition at 10 µM [2, 6]: 82%"
"NC(=O)Cc1cccc(-n2nc(-c3ccsc3)cc2NC(=O)Nc2cccc(Cl)c2Cl)c1 [Example 452, 1-(1-(3-(2-amino-2-oxoethyl)phenyl)-3-(thiophen-3-yl)-1H-pyrazol-5-yl)-3-(2,3-dichlorophenyl)urea]",0.006 µM,–,–,37%,"inhibition at 1 µM [4, 6]: 45%"
"O=C(Nc1ccc(F)c(F)c1F)Nc1cc(-c2cccs2)nn1-c1cccc(CO)c1 [Example 493, 1-(1-(3-(hydroxymethyl)phenyl)-3-(thiophen-2-yl)-1H-pyrazol-5-yl)-3-(2,3,4-trifluorophenyl)urea]",–,–,82%,–,"% @ concentration, uM ([5]; @ 1 uM): 36%; % @ concentration, uM ([5]; @ 10 uM): 73%; inhibition at 1 µM ([2]; read-out: Results, % @ concentration μM, Method A1, @ 1 μM): 17%"
"NC(=O)Cc1ccc(-n2nc(-c3ccsc3)cc2NC(=O)Nc2cccc(Cl)c2Cl)cc1 [Example 469, 1-(1-(4-(2-amino-2-oxoethyl)phenyl)-3-(thiophen-3-yl)-1H-pyrazol-5-yl)-3-(2,3-dichlorophenyl)urea]",0.009 µM,–,–,22%,"inhibition at 1 µM [4, 6]: 43%"
"O=C(Cc1cccc(-n2nc(-c3ccccc3F)cc2NC(=O)Nc2cccc(Cl)c2Cl)c1)NC(CO)CO [Example 461, 1-(2,3-dichlorophenyl)-3-(1-(3-(2-(1,3-dihydroxypropan-2-ylamino)-2-oxoethyl)phenyl)-3-(2-fluorophenyl)-1H-pyrazol-5-yl)urea]",0.03 µM,–,33%,–,"IC50 [5]: 0.017 µM; inhibition at 10 µM [4, 6]: 28%"
"CN(C)[C@@H]1CCN(C(=O)Cc2ccc(-n3nc(C(C)(C)C)cc3NC(=O)Nc3cccc(Cl)c3Cl)cc2)C1 [Example 480, (R)-1-(3-tert-butyl-1-(4-(2-(3-(dimethylamino)pyrrolidin-1-yl)-2-oxoethyl)phenyl)-1H-pyrazol-5-yl)-3-(2,3-dichlorophenyl)urea]",–,0.029 µM,92%,94%,–
"O=C(O)Cc1cccc(-n2nc(-c3ccc(F)cc3)cc2NC(=O)Nc2cccc(Cl)c2Cl)c1 [Example 431, 2-(3-(5-(3-(2,3-dichlorophenyl)ureido)-3-(4-fluorophenyl)-1H-pyrazol-1-yl)phenyl)acetic acid]",–,–,–,29%,–
"CN(C)[C@@H]1CCN(C(=O)Cc2ccc(-n3nc(C(C)(C)C)cc3NC(=O)Nc3cccc(Cl)c3Cl)cc2)C1 [Example 481, (R)-1-(3-tert-butyl-1-(4-(2-(3-(dimethylamino)pyrrolidin-1-yl)-2-oxoethyl)phenyl)-1H-pyrazol-5-yl)-3-(2,3-dichlorophenyl)urea]",–,0.041 µM,–,–,"Results, % @ concentration μM ([1]; Method K1, @ 10 μM): 102% @10; Results, % @ concentration μM ([2]; Method A1, @ 10 μM): 93% @10"
"CC(C)(C)c1cc(NC(=O)Nc2cccc(Cl)c2Cl)n(-c2cccc(CN3C(=O)NC(=O)C3=O)c2)n1 [Example 482, 1-(3-tert-butyl-1-(3-((2,4,5-trioxoimidazolidin-1-yl)methyl)phenyl)-1H-pyrazol-5-yl)-3-(2,3-dichlorophenyl)urea]",–,0.0038 µM,–,–,"IC50 [5]: 0.084 µM; IC50 ([1]; Method K1): 1.4 µM; IC50 [2, 7]: 3.2 µM"
"CC(C)(C)c1cc(NC(=O)Nc2cccc(Cl)c2Cl)n(-c2ccc(CC(=O)N3CCCC(C(=O)O)C3)cc2)n1 (centres unmarked) [Example 476, 1-(2-(4-(3-tert-butyl-5-(3-(2,3-dichlorophenyl)ureido)-1H-pyrazol-1-yl)phenyl)acetyl)piperidine-3-carboxylic acid]",0.006 µM,0.041 µM,–,–,"IC50 [5]: 0.024 µM; IC50 [2, 7]: 8.4 µM"
"CC(C)(C)c1cc(NC(=O)Nc2cccc(Cl)c2Cl)n(-c2ccc(CC(=O)N3CC[C@H](O)C3)cc2)n1 [Example 478, (S)-1-(3-tert-butyl-1-(4-(2-(3-hydroxypyrrolidin-1-yl)-2-oxoethyl)phenyl)-1H-pyrazol-5-yl)-3-(2,3-dichlorophenyl)urea]",0.006 µM,0.028 µM,99%,91%,–
"CC(C)(C)c1cc(NC(=O)Nc2cccc(-c3ccc(N)nc3)c2)n(-c2cccc(CC(N)=O)c2)n1 [Example 508, 1-(1-(3-(2-amino-2-oxoethyl)phenyl)-3-tert-butyl-1H-pyrazol-5-yl)-3-(3-(6-aminopyridin-3-yl)phenyl)urea]",0.33 µM,0.02 µM,–,32%,IC50 [5]: 0.052 µM
"CC(C)(C)c1cc(NC(=O)Nc2ccc(F)cc2F)n(-c2ccc(CC(=O)O)cc2)n1 [Example 497, 2-(4-(3-tert-butyl-5-(3-(2,4-difluorophenyl)ureido)-1H-pyrazol-1-yl)phenyl)acetic acid]",–,0.045 µM,43%,30%,–
"COC(=O)Cc1ccc(-n2nc(-c3ccsc3)cc2NC(=O)Nc2cccc(Cl)c2Cl)cc1 [Example 445, methyl 2-(4-(5-(3-(2,3-dichlorophenyl)ureido)-3-(thiophen-3-yl)-1H-pyrazol-1-yl)phenyl)acetate]",–,–,–,30%,"inhibition at 1 µM [4, 6]: 39%"
"CC(C)(C)c1cc(NC(=O)Nc2cccc(-c3cccnc3)c2)n(-c2cccc(CC(N)=O)c2)n1 [Example 507, 1-(1-(3-(2-amino-2-oxoethyl)phenyl)-3-tert-butyl-1H-pyrazol-5-yl)-3-(3-(pyridin-3-yl)phenyl)urea]",0.18 µM,0.035 µM,–,–,"IC50 [5]: 0.007 µM; IC50 [2, 7]: 23.3 µM"
"CC(C)(C)c1cc(NC(=O)Nc2cccc(Oc3cnccn3)c2)n(-c2cccc(CC(N)=O)c2)n1 [Example 504, 1-(1-(3-(2-amino-2-oxoethyl)phenyl)-3-tert-butyl-1H-pyrazol-5-yl)-3-(3-(pyrazin-2-yloxy)phenyl)urea]",0.082 µM,0.043 µM,–,–,IC50 ([1]; Method K1): 0.049 µM; IC50 [2]: 0.063 µM
"O=C(Cc1ccc(-n2nc(-c3ccccc3)cc2NC(=O)Nc2cccc(Cl)c2Cl)cc1)NCCO [Example 470, 1-(2,3-dichlorophenyl)-3-(1-(4-(2-(2-hydroxyethylamino)-2-oxoethyl)phenyl)-3-phenyl-1H-pyrazol-5-yl)urea]",–,–,–,15%,IC50 [5]: 0.005 µM
"CC(C)(C)c1cc(NC(=O)Nc2cccc(F)c2F)n(-c2cccc(CC(N)=O)c2)n1 [Example 495, 1-(1-(3-(2-amino-2-oxoethyl)phenyl)-3-tert-butyl-1H-pyrazol-5-yl)-3-(2,3-difluorophenyl)urea]",0.038 µM,0.009 µM,–,–,"IC50 [5]: 0.25 µM; IC50 [2, 7]: 7.6 µM"
"O=C(O)Cc1cccc(-n2nc(-c3ccccc3F)cc2NC(=O)Nc2cccc(Cl)c2Cl)c1 [Example 433, 2-(3-(5-(3-(2,3-dichlorophenyl)ureido)-3-(2-fluorophenyl)-1H-pyrazol-1-yl)phenyl)acetic acid]",0.007 µM,–,63%,39%,"inhibition at 1 µM [4, 6]: 37%"
